The test addresses T1, USP25 (USP25-His6, Boston Biochem E-546) (Homo sapiens, UniProt Q9UHP3).
T1 construct: His6; purchased Boston Biochem E-546
T1 sequence (Q9UHP3 1-1055): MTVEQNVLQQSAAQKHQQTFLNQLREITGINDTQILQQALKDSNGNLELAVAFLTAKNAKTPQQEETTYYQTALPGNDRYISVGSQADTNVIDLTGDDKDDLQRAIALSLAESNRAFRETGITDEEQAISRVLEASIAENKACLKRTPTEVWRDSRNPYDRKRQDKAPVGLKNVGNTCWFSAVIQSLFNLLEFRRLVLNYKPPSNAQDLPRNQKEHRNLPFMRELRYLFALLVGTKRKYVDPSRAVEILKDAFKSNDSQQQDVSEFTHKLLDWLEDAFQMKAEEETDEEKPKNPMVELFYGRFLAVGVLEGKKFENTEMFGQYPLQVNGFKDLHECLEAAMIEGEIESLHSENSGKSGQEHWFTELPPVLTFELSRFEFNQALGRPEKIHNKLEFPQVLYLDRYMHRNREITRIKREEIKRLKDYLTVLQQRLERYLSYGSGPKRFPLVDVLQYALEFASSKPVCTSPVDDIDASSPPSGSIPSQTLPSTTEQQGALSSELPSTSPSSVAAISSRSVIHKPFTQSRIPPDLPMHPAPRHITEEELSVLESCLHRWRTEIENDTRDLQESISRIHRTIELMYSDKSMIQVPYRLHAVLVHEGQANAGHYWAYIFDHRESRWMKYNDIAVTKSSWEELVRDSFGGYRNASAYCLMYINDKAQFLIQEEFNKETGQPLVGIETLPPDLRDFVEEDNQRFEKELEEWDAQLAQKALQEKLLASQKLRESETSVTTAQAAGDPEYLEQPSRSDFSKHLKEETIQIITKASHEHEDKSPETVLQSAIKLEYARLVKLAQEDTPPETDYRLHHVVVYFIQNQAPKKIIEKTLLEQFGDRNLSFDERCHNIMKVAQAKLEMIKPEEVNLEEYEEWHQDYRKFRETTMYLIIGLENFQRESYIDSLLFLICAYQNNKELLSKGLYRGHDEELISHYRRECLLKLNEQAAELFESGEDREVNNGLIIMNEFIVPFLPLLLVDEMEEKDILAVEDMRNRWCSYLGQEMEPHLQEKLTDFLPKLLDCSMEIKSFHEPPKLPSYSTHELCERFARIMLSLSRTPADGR
Description: Ubiquitin-Rhodamine 110 Assay for USP25 Activity, Example A-2. The test is classed as biochemical. To be noted: Ubiquitin-Rhodamine 110 assay, Example A-2; read-out: USP25 A-2 IC50 range. Put shortly: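 75 pM USP25-His6 was preincubated 30 min with compound (10-point 3-fold series, 25 μM–1.3 nM) in pH 8.0 Tris buffer with BME, BGG and Triton X-100. Then 25 nM Ub-Rh110 (<<Km) was added for 45 min at room temperature, stopped with citric acid, fluorescence read at 485/535 nm, IC50 by 4-parameter fit.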
As for `COC[C@@H]1CN(c2ccc3c(n2)CC[C@H](NC(=O)c2sc4nc(C)cnc4c2N)C3)C[C@@H]1N` [Example 298, 7-amino-N-[(6S)-2-[(3R,4R)-3-amino-4-(methoxymethyl)pyrrolidin-1-yl]-5,6,7,8-tetrahydroquinolin-6-yl]-3-methylthieno[2,3-b]pyrazine-6-carboxamide], the IC50 (usually the midpoint of a concentration-inhibition curve) was more than 2000 nM.

Take `COC[C@H]1C[C@H](N)CN1c1ccc2c(c1)OC[C@H](NC(=O)c1sc3nc(C)ccc3c1N)C2` [Example 261, 3-amino-N-[(3R)-7-[(2R,4S)-4-amino-2-(methoxymethyl)pyrrolidin-1-yl]-3,4-dihydro-2H-1-benzopyran-3-yl]-6-methylthieno[2,3-b]pyridine-2-carboxamide]: the IC50 was in the range of 50 to 200 nM.

With `CO[C@H]1CCN(c2ccc3c(c2)OC[C@H](NC(=O)c2sc4nc(C)cc(C)c4c2N)C3)C[C@@H]1N` [Example 317, 3-amino-N-[(3R)-7-[(3S,4S)-3-amino-4-methoxypiperidin-1-yl]-3,4-dihydro-2H-1-benzopyran-3-yl]-4,6-dimethylthieno[2,3-b]pyridine-2-carboxamide], the IC50 is 200 to 2000 nM.

For the molecule `Cc1ccc2c(N)c(C(=O)N[C@H]3CCc4nc(N5C[C@H]6NCCC(F)(F)[C@H]6C5)ccc4C3)sc2n1` [Example 329, N-[(6S)-2-[(4aS,7aS)-4,4-difluoro-octahydro-1H-pyrrolo[3,4-b]pyridin-6-yl]-5,6,7,8-tetrahydroquinolin-6-yl]-3-amino-6-methylthieno[2,3-b]pyridine-2-carboxamide], the IC50 lay within 200 to 2000 nM.

Consider `Cc1ccc2c(N)c(C(=O)N[C@H]3COc4cc(N5C[C@@H](N)[C@]6(CCCO6)C5)ccc4C3)sc2n1` [Example 309, 3-amino-N-[(3R)-7-[(5S,9R)-9-amino-1-oxa-7-azaspiro[4.4]nonan-7-yl]-3,4-dihydro-2H-1-benzopyran-3-yl]-6-methylthieno[2,3-b]pyridine-2-carboxamide], for which the IC50 lay within 50 to 200 nM.

On to `COC[C@@H]1CN(c2cc(F)c3c(c2F)OC[C@H](NC(=O)c2sc4nc(C)cc(C)c4c2N)C3)C[C@@H]1N` [Example 277, 3-amino-N-[(3R)-7-[(3R,4R)-3-amino-4-(methoxymethyl)pyrrolidin-1-yl]-5,8-difluoro-3,4-dihydro-2H-1-benzopyran-3-yl]-4,6-dimethylthieno[2,3-b]pyridine-2-carboxamide], for which the IC50 lay in the range of 200 to 2000 nM.

For `CO[C@@H]1CCN(c2ccc3c(n2)CC[C@H](NC(=O)c2sc4nc(C)ccc4c2N)C3)C[C@H]1N` (single isomer, unassigned) [Example 316], the IC50 was more than 2000 nM.

For `Cc1ccc2c(N)c(C(=O)N[C@H]3COc4cc(N5C[C@@H](N)[C@H](C(F)F)C5)ccc4C3)sc2n1` [Example 295, 3-amino-N-[(3R)-7-[(3S,4R)-3-amino-4-(difluoromethyl)pyrrolidin-1-yl]-3,4-dihydro-2H-1-benzopyran-3-yl]-6-methylthieno[2,3-b]pyridine-2-carboxamide], the IC50 is 50 to 200 nM.

With `COC[C@@H]1CN(c2nc3c(cc2F)C[C@@H](NC(=O)c2sc4nc(C)ccc4c2N)CC3)C[C@@H]1N` [Example 300, 3-amino-N-[(6S)-2-[(3R,4R)-3-amino-4-(methoxymethyl)pyrrolidin-1-yl]-3-fluoro-5,6,7,8-tetrahydroquinolin-6-yl]-6-methylthieno[2,3-b]pyridine-2-carboxamide], the IC50 is more than 2000 nM.

Regarding `CO[C@@H]1CN(c2ccc3c(c2)OC[C@H](NC(=O)c2sc4nc(C)ccc4c2N)C3)[C@H](C)[C@H]1N` [Example 335, 3-amino-N-[(3R)-7-[(2R,3R,4R)-3-amino-4-methoxy-2-methylpyrrolidin-1-yl]-3,4-dihydro-2H-1-benzopyran-3-yl]-6-methylthieno[2,3-b]pyridine-2-carboxamide], the IC50 was 200 to 2000 nM.

`CCO[C@H]1CN(c2ccc3c(c2)OC[C@H](NC(=O)c2sc4nc(C)cc(C)c4c2N)C3)C[C@H]1N` [Example 324, 3-amino-N-[(3R)-7-[(3R,4S)-3-amino-4-ethoxypyrrolidin-1-yl]-3,4-dihydro-2H-1-benzopyran-3-yl]-4,6-dimethylthieno[2,3-b]pyridine-2-carboxamide]: the IC50 is 200 to 2000 nM.

For the molecule `Cc1ccc2c(N)c(C(=O)N[C@H]3COc4cc(N5CCC6(CNC6)C5)ccc4C3)sc2n1` [Example 306, 3-amino-N-[(3R)-7-{2,6-diazaspiro[3.4]octan-6-yl}-3,4-dihydro-2H-1-benzopyran-3-yl]-6-methylthieno[2,3-b]pyridine-2-carboxamide], the IC50 was in the range of 200 to 2000 nM.

For the molecule `Cc1cnc2c(N)c(C(=O)N[C@H]3CCc4cc(N5C[C@H](OC(C)C)[C@@H](N)C5)ccc4C3)sc2n1` [Example 319, 7-amino-N-[(2S)-6-[(3S,4S)-3-amino-4-(propan-2-yloxy)pyrrolidin-1-yl]-1,2,3,4-tetrahydronaphthalen-2-yl]-3-methylthieno[2,3-b]pyrazine-6-carboxamide], the IC50 is more than 2000 nM.

Consider `CO[C@H]1[C@@H](C)N(c2ccc3c(c2)OC[C@H](NC(=O)c2sc4nc(C)ccc4c2N)C3)C[C@@H]1N` [Example 336, 3-amino-N-[(3R)-7-[(2R,3R,4S)-4-amino-3-methoxy-2-methylpyrrolidin-1-yl]-3,4-dihydro-2H-1-benzopyran-3-yl]-6-methylthieno[2,3-b]pyridine-2-carboxamide], for which the half-maximal inhibitory concentration (IC50) is 200 to 2000 nM.

In the case of `COC[C@]1(C)CN(c2ccc3c(n2)CC[C@H](NC(=O)c2sc4nc(C)ccc4c2N)C3)C[C@H]1N` [Example 344, 3-amino-N-[(6S)-2-[(3R,4S)-4-amino-3-(methoxymethyl)-3-methylpyrrolidin-1-yl]-5,6,7,8-tetrahydroquinolin-6-yl]-6-methylthieno[2,3-b]pyridine-2-carboxamide], the IC50 fell in the range of 200 to 2000 nM.

In the case of `CN[C@H]1CN(c2ccc3c(n2)CC[C@H](NC(=O)c2sc4nc(C)cc(C)c4c2N)C3)C[C@@H]1OC` [Example 312, 3-amino-N-[(6S)-2-[(3S,4S)-3-methoxy-4-(methylamino)pyrrolidin-1-yl]-5,6,7,8-tetrahydroquinolin-6-yl]-4,6-dimethylthieno[2,3-b]pyridine-2-carboxamide], the IC50 was more than 2000 nM.

`COC[C@H]1CN(c2ccc3c(n2)CC[C@H](NC(=O)c2sc4nc(C)cnc4c2N)C3)C[C@H]1N` [Example 299, 7-amino-N-[(6S)-2-[(3S,4S)-3-amino-4-(methoxymethyl)pyrrolidin-1-yl]-5,6,7,8-tetrahydroquinolin-6-yl]-3-methylthieno[2,3-b]pyrazine-6-carboxamide]: the IC50 is 200 to 2000 nM.

For the molecule `Cc1ccc2c(N)c(C(=O)N[C@H]3COc4cc(N5C[C@H](N)[C@@]6(CCCO6)C5)ccc4C3)sc2n1` [Example 310, 3-amino-N-[(3R)-7-[(5R,9S)-9-amino-1-oxa-7-azaspiro[4.4]nonan-7-yl]-3,4-dihydro-2H-1-benzopyran-3-yl]-6-methylthieno[2,3-b]pyridine-2-carboxamide], the IC50 lay within 200 to 2000 nM.

Regarding `Cc1ccc2c(N)c(C(=O)N[C@H]3COc4cc(N5C[C@H](N)[C@]6(CCCO6)C5)ccc4C3)sc2n1` [Example 307, 3-amino-N-[(3R)-7-[(5S,9S)-9-amino-1-oxa-7-azaspiro[4.4]nonan-7-yl]-3,4-dihydro-2H-1-benzopyran-3-yl]-6-methylthieno[2,3-b]pyridine-2-carboxamide], the IC50 lay within 200 to 2000 nM.

Regarding `Cc1ccc2c(N)c(C(=O)N[C@H]3COc4cc(N5C[C@@H](F)[C@@H](N)C5)ccc4C3)sc2n1` (single isomer, unassigned) [Example 3-6], the IC50 lay within 200 to 2000 nM.

With `CCO[C@H]1CN(c2ccc3c(c2)CC[C@H](NC(=O)c2sc4nc(C)ccc4c2N)C3)C[C@H]1N` [Example 268, 3-amino-N-[(2S)-6-[(3R,4S)-3-amino-4-ethoxypyrrolidin-1-yl]-1,2,3,4-tetrahydronaphthalen-2-yl]-6-methylthieno[2,3-b]pyridine-2-carboxamide], the IC50 is more than 2000 nM.

Consider `COC[C@H]1CN(c2cc(F)c3c(c2F)OC[C@H](NC(=O)c2sc4nc(C)cc(C)c4c2N)C3)C[C@H]1N` [Example 278, 3-amino-N-[(3R)-7-[(3S,4S)-3-amino-4-(methoxymethyl)pyrrolidin-1-yl]-5,8-difluoro-3,4-dihydro-2H-1-benzopyran-3-yl]-4,6-dimethylthieno[2,3-b]pyridine-2-carboxamide], for which the IC50 was 50 to 200 nM.

The values are drawn from patent publication US11524966B1 (Valo Early Discovery, Inc., priority 2017, dated 2022).
